Patent US20030207830A1, “Mutant NDP kinases for antiviral nucleotide analog activation and therapeutic uses thereof” (priority 2002, published 2003)
Substitutions are numbered along the chain they refer to. Numbers in names are those of the source. Each block holds one molecule with its values, some of them ahead of it.

Experiments:
[1] = system: human pancreatic adenocarcinoma cell lines; conditions: 4-fold overexpression of mitochondrial deoxyguanosine kinase; cited from earlier work
[2] = target: T1, Dictyostelium discoideum NDP kinase inactive variant EI-N119S (H122G-F64W-N119S) (Dictyostelium discoideum, UniProt P22887, F64W/H122G/N119S); assay: biochemical; format: binding
T1 construct: made in house
Description: (§1) The binding constants were determined at equilibrium by recording the increase in fluorescence (Schneider, 2000).
(§2) Analog binding affinity was measured using a variant of Dd-NDPK (EI) as described (Schneider, 2000). […] The mutation N119S was inserted in EI in order to measure the nucleotide affinity by fluorescence titration.
(§3) Altered bases as compared to the wild type sequence are underlined in bold. Sequences were checked by automatic sequencing. The mutant EI-N119S was obtained by mutation of the previously described F64W-H122G mutated NDP kinase (here called EI) (Schneider 2000).

[3] = target: T2, Dictyostelium discoideum NDP kinase inactive variant EI (H122G-F64W) (Dictyostelium discoideum, UniProt P22887, F64W/H122G); assay: biochemical; format: binding
T2 construct: made in house
Description: as §1, §2, §3

[4] = target: T3, Dictyostelium NDP Kinase N119S (Dictyostelium discoideum, UniProt P22887, N119S); assay: Pre-steady-state fluorescence stopped-flow phosphotransfer from nucleoside triphosphates, N119S Dd-NDPK; format: biochemical; conditions: pre-steady state, stopped-flow; average of three determinations
T3 construct: made in house
Description: (§4) All numbers in italics have already been published (Schneider, 1998, 2000) The kinetic constants were measured at the pre-steady-state level using a fluorescence stopped-flow device. The binding constants were determined at equilibrium by recording the increase in fluorescence (Schneider, 2000). Values are the average of three independent determinations.
(§5) As the diphosphate form of analogs were not always available, the triphosphate analogs were used to study phosphate transfer in reaction as in Scheme I. Experiments were performed with an Hi-Tech DX2 microvolume stopped-flow reaction (Schneider, 1998) at Aexc=296 nm (for Ado derivatives) or […] (for other nucleotides), 2 mm excitation slit and a 320 nm cutoff filter at the emission. After mixing NDPK (1 μM) and NTP or an analogTP (10-500 μM), the intrinsic protein fluorescence was recorded for 10-200 sec. In each experiment, 400 pairs of data were recorded, and the data from 3-4 identical experiments were averaged and fitted to a number of non-linear analytical equations using the software provided by Hi-Tech. All curves fitted to single exponentials.
(§6) The data were analyzed using the reaction scheme: [drawing 1]
(§7) In both the forward and the reverse reactions, the product concentration remains very low, thus the product binding can be neglected, and the observed single step could be attributed to the phosphotransfer (Schneider, 1998). The rate of this observed single step is: [formula]
(§8) and reaches a limiting value (k+2) at NTP saturation. Saturation could not be obtained with the concentrations of any NTP used here. Therefore, catalytic efficiencies of phosphorylation (CEphos=k+2/(k−1/k+1)=k+2/KS) were measured, which are equivalent to second order constants and allow a reliable comparison of a variety of NDP kinase substrates.

[5] = target: T4, Dictyostelium discoideum NDP kinase (Dd-NDPK) variant N119S, SEQ ID NO: 1 (Dictyostelium discoideum, UniProt P22887, N119S); assay: Pre-steady-state phosphotransfer, fluorescence stopped-flow; format: biochemical; conditions: catalytic efficiency of phosphotransfer, N119S, pre-steady state
T4 construct: made in house
Description: (§9) (A) Kinetics of reaction of phosphorylated Dictyostelium wild type and N119S NDP kinases by 100 μM Acyclovir diphosphate (Acy-DP). The phosphorylated enzyme was prepared with a stoichiometry #1 as described (Deville-Bonne 1996). The kinases were preincubated with ATP in excess in buffer T (50 mM Tris-HCl, pH 7.5, 5 mM MgCl2 and 75 mM KCl). The increase in fluorescence upon mixing the phospho-enzyme (1 μM, final concentration) with Acy-DP in buffer T at 20° C. was monitored with a stopped-flow. The solid lines represent the best fit of each curve to a monoexponential.
(§10) (B) Concentration dependence of the rate constant on Acy-DP concentation. The pseudo-first order rate constant for the reaction (kobs) was plotted against Acy-DP.
as §4
(§11) Wild type human NDPK-A and the mutants were expressed and purified according to Schneider et al., 2000, Mol Pharm. Recombinant wild type and mutant Dd-NDPK were obtained as described (Schneid, 1998a), except for N119Y NDP kinase which was partially purified by Q sepharose FF chromatography. Each protein was characterized by […] electrophoresis. The concentration of 17 kDa subunits of the enzyme was either determined by Bradford assay ([…]) or using an absorbance coefficient of ΔA^280=1.249 for a 1 mg/mL solution of human wild type and N115S NDPK-A, and =0.55 for wild type and mutant N119S, N119T Dd-NDP kinases, respectively.
as §5, §6, §7, §8

[6] = target: T5, Dictyostelium discoideum NDP kinase (Dd-NDPK), wild type (Dictyostelium discoideum, UniProt P22887); assay: as above; format: biochemical; conditions: catalytic efficiency of phosphotransfer, wt
T5 construct: made in house
Description: as §9, §10, §4, §11, §5, §6, §7, §8

[7] = target: T6, Dictyostelium NDP Kinase wt (Dictyostelium discoideum, UniProt P22887); assay: Pre-steady-state fluorescence stopped-flow phosphotransfer from nucleoside triphosphates, wild type Dd-NDPK; format: biochemical; conditions: average of three determinations
T6 construct: made in house
Description: as §1
After mixing NDPK (1 μM) and NTP or an analogTP (10-500 μM), the intrinsic protein fluorescence was recorded for 10-200 sec. In each experiment, 400 pairs of data were recorded, and the data from 3-4 identical experiments were averaged and fitted to a number of non-linear analytical equations using the software provided by Hi-Tech.
as §6
The rate of this observed single step is: [formula]
(§12) and reaches a limiting value (k+2) at NTP saturation. […] Therefore, catalytic efficiencies of phosphorylation (CEphos=k+2/(k−1/k+1)=k+2/KS) were measured, which are equivalent to second order constants and allow a reliable comparison of a variety of NDP kinase substrates.

[8] = target: T7, Inactive-N119S Dd-NDPK (EI-N119S) (Dictyostelium discoideum, UniProt P22887, F64W/H122G/N119S); assay: Equilibrium fluorescence titration of nucleotide binding, inactive Dd-NDPK variant with N119S; conditions: relative affinity of NTP for both enzymes
T7 construct: made in house
Description: as §4
In contrast to what is observed with natural nucleotides, the Ser mutation specifically improves the catalytic efficiency with nucleotides analogs as shown in Table I; ddGTPs and AZT-TP react, respectively, 1.5 and 4 times faster with the N119S enzyme. […] Analog binding affinity was measured using a variant of Dd-NDPK (EI) as described (Schneider, 2000). This mutant (H122G-F64W) lacks the catalytic histidine, and a tryptophan replaces the phenylalanine stacking on the base in the active site (Schneider, 2000). The mutation N119S was inserted in EI in order to measure the nucleotide affinity by fluorescence titration. The Ser contribution to the binding was evaluated from the relative affinity of NTP for both enzymes (Table I).
as §3, with “for N119S, N119T and N119Y mutations, respectively. Altered” for “Altered”

[9] = target: T8, human NDP kinase A (NDPK-A) variant N115S, SEQ ID NO: 2 (Homo sapiens, UniProt P15531, N115S); assay: Pre-steady-state phosphotransfer, fluorescence stopped-flow; format: biochemical; conditions: N115S, pre-steady state
T8 construct: made in house; host or cells: E. coli
Description: (§13) FIG. 3 depicts the catalytic efficiency of NDPK-A and mutants for nucleoside analogs. The rates of phosphorylation of pure recombinant NDP kinases (1 μM) were measured at the pre-steady state in a fluorescence stopped-flow with d4T-TP (10 to 80 μM). The catalytic efficiency (expressed in M^−1s^−1) was determined from the variation of the rate as a function of analog as shown in FIG. 2 (▾, NDPK-A, ♦ L55H, ● N115S, ▪ L55H-N115S).
(§14) The activity assays were performed at the pre-steady state level.
(§15) R, the specificity change, is the ratio of the catalytic efficiencies (for analog versus natural nucleotide) of the mutant compared to the wild type enzyme.
as §11
as §5, with “Hi-Tech.” for “Hi-Tech. All curves fitted to single exponentials.”
as §6, §7, §12

[10] = target: T9, human NDP kinase A (NDPK-A) variant L55H (Homo sapiens, UniProt P15531, L55H); assay: as above; format: biochemical; conditions: L55H, pre-steady state
T9 construct: made in house; host or cells: E. coli
Description: as §13, §14, §15, §11
as §5, with “Hi-Tech.” for “Hi-Tech. All curves fitted to single exponentials.”
as §6, §7, §12

[11] = target: T10, human NDP kinase A (NDPK-A) variant L55H-N115S, SEQ ID NO: 3 (Homo sapiens, UniProt P15531, L55H/N115S); assay: as above; format: biochemical; conditions: L55H-N115S, pre-steady state
T10 construct: made in house; host or cells: E. coli
Description: as §13, §14, §15, §11
as §5, with “Hi-Tech.” for “Hi-Tech. All curves fitted to single exponentials.”
as §6, §7, §12

[12] = target: T11, human NDP kinase A (NDPK-A, nm23-H1), wild type (Homo sapiens, UniProt P15531); assay: as above; format: biochemical; conditions: catalytic efficiency of phosphotransfer, NDPK-A, pre-steady state
T11 construct: made in house
Description: as §13, §14, §11
as §5, with “Hi-Tech.” for “Hi-Tech. All curves fitted to single exponentials.”
as §6, §7, §12

[13] = Dd-NDPK mutant; cited from earlier work
[14] = Reactivity of Dd-NDPK Asn 119 mutants for nucleotide analogs; format: biochemical; conditions: Dd-NDPK mutant versus wild type
Description: First, by site-directed mutagenesis, a limited set of amino acid substitutions (Ser, Thr, or Tyr) at the position of Asn 119 were introduced into the active site of Dd-NDPK. The three mutant proteins were expressed and purified to homogeneity, except N119Y, which was found unstable and poorly active (0.05% of wild type activity).

[15] = catalytic efficiency of phosphotransfer

T3 sequence (P22887 whole entry N119S): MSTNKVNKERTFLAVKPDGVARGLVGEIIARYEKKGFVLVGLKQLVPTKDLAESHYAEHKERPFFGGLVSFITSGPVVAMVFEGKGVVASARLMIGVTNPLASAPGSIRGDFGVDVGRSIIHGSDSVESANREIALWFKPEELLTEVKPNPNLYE
T10 sequence (P15531 whole entry L55H/N115S): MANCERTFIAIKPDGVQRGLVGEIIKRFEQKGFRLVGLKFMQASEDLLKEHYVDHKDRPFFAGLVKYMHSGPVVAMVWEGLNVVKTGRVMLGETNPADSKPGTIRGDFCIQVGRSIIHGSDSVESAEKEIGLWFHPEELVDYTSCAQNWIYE
T4 sequence (P22887 whole entry N119S): as the sequence (P22887 whole entry N119S) above
T2 sequence (P22887 whole entry F64W/H122G): as the sequence (P22887 whole entry N119S) above, with F64W, S119N, H122G counted along it
T6 sequence (P22887 whole entry): as the sequence (P22887 whole entry N119S) above, with S119N counted along it
T5 sequence (P22887 whole entry): as the sequence (P22887 whole entry N119S) above, with S119N counted along it
T9 sequence (P15531 whole entry L55H): as the sequence (P15531 whole entry L55H/N115S) above, with S115N counted along it
T8 sequence (P15531 whole entry N115S): as the sequence (P15531 whole entry L55H/N115S) above, with H55L counted along it
T1 sequence (P22887 whole entry F64W/N119S/H122G): as the sequence (P22887 whole entry N119S) above, with F64W, H122G counted along it
T7 sequence (P22887 whole entry F64W/N119S/H122G): as the sequence (P22887 whole entry N119S) above, with F64W, H122G counted along it
T11 sequence (P15531 whole entry): as the sequence (P15531 whole entry L55H/N115S) above, with H55L, S115N counted along it

Molecule: Nc1nc(Cl)nc2c1ncn2[C@H]1C[C@H](O)[C@@H](CO)O1 [CdA]
sensitivity of cells [1]: enhanced sensitivity

Molecule: Nc1nc2c(ncn2[C@@H]2O[C@H](COP(=O)(O)OP(=O)(O)OP(=O)(O)O)[C@@H](O)[C@H]2O)c(=O)[nH]1 [GTP]
Kd [2]: 1100 nM
Kd [3]: 150 nM
k2/Ks N119S (catalytic efficiency of phosphotransfer) [4]: 700000 M⁻¹ s⁻¹
k2/Ks [5]: 700000 M⁻¹ s⁻¹
k2/Ks [6]: 8e+06 M⁻¹ s⁻¹
k2/Ks wt (catalytic efficiency of phosphotransfer) [7]: 8e+06 M⁻¹ s⁻¹

Molecule: Nc1nc2c(ncn2COCCOP(=O)(O)OP(=O)(O)OP(=O)(O)O)c(=O)[nH]1 [acyclovirTP, acyclovir-TP]
k2/Ks N119S (catalytic efficiency of phosphotransfer) [4]: 1650 M⁻¹ s⁻¹
factor by which Ser 119 reinforces affinity (EI-N119S versus EI) [8]: 10 fold

Molecule: Nc1nc2c(ncn2[C@@H]2O[C@H](CO)[C@@H](O)[C@@H]2O)c(=O)[nH]1 [araG]
sensitivity of cells [1]: enhanced sensitivity

Molecule: Nc1nc2c(ncn2[C@@H]2O[C@H](CO)[C@@H](O)C2(F)F)c(=O)[nH]1 [dFdG]
sensitivity of cells [1]: enhanced sensitivity

Molecule: Cc1cn([C@H]2C[C@H](O)[C@@H](COP(=O)(O)OP(=O)(O)OP(=O)(O)O)O2)c(=O)[nH]c1=O [dTTP]
Kd [2]: 5200 nM
Kd [3]: 1200 nM
k2/Ks N119S (catalytic efficiency of phosphotransfer) [4]: 430000 M⁻¹ s⁻¹
k2/Ks [5]: 430000 M⁻¹ s⁻¹
k2/Ks [6]: 5.7e+06 M⁻¹ s⁻¹
k2/Ks wt (catalytic efficiency of phosphotransfer) [7]: 5.7e+06 M⁻¹ s⁻¹
factor of rate versus wild type NDPK-A [9]: 0.08
k2/Ks [9, 15]: 100000 M⁻¹ s⁻¹
factor of rate versus wild type NDPK-A [10]: 1.8
k2/Ks [10, 15]: 2e+06 M⁻¹ s⁻¹
factor of rate versus wild type NDPK-A [11]: 0.33
k2/Ks [11, 15]: 450000 M⁻¹ s⁻¹
k2/Ks [12]: 1.2e+06 M⁻¹ s⁻¹

B1: K16A: Dd-NDPK with Lys 16 mutated into Ala (Schneider 2001) (protein, UniProt P22887 1-155, looked up, variant K16A)
Nucleoside diphosphate …: MSTNKVNKERTFLAVAPDGVARGLVGEIIARYEKKGFVLVGLKQLVPTKDLAESHYAEHKERPFFGGLVSFITSGPVVAMVFEGKGVVASARLMIGVTNPLASAPGSIRGDFGVDVGRNIIHGSDSVESANREIALWFKPEELLTEVKPNPNLYE
factor of decrease of catalytic constant of phosphotransfer [13]: 100

B2: N119A: Dd-NDPK with Asn 119 mutated into Ala (Schneider 2001) (protein, UniProt P22887 1-155, looked up, variant N119A)
Nucleoside diphosphate …: B1 Nucleoside diphosphate … with A16K, N119A
effect of mutation on kinetic parameters of the enzyme [13]: did not affect significantly

enzyme reactivity for analogs [14]: without effect
B3: N119T: Dd-NDPK with Thr at the position of Asn 119 (protein, UniProt P22887 1-155, looked up, variant N119T)
Nucleoside diphosphate …: B1 Nucleoside diphosphate … with A16K, N119T
